The supplement of paper PMC8617591

Experiments:
[1] = tested on: Mycobacterium tuberculosis Erdman (autoluminescent); experiment: FIC90 (Loewe) at 90% inhibition (log2); higher = more antagonistic
Method: (§1)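 DiaMOND equipotent two-drug combination dose responses against autoluminescent M. tuberculosis Erdman in 8 in vitro models. Read-out is OD600, or luminescence for the intracellular and dormancy models, normalised to untreated wells. Hill-fit Einf, AUC25 and GRinf are potency metrics; FIC50 and FIC90 are Loewe-additivity fractional inhibitory concentrations, given as log2 (negative = synergy). Replicates are averaged.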

[2] = tested on: Mycobacterium tuberculosis Erdman (autoluminescent); experiment: AUC25, normalised area under dose response up to IC25 (fraction (0-1)); higher = more potent at low dose
Method: as §1

[3] = tested on: Mycobacterium tuberculosis Erdman (autoluminescent); experiment: FIC50 (Loewe) at 50% inhibition (log2); higher = more antagonistic
Method: as §1

[4] = tested on: Mycobacterium tuberculosis Erdman (autoluminescent); experiment: Einf, fitted maximum growth inhibition of combination (fraction); higher = stronger maximal inhibition
Method: as §1

[5] = tested on: Mycobacterium tuberculosis Erdman (autoluminescent); experiment: GRinf, maximum normalised growth rate inhibition (unitless (-1 to 1)); higher = less effect (negative = killing)
Method: as §1

O=[N+]([O-])c1cn2c(n1)OC[C@@H](OCc1ccc(OC(F)(F)F)cc1)C2 [pretomanid] + CO[C@H]1/C=C/O[C@@]2(C)Oc3c(C)c(O)c4c(O)c(c(/C=N/N5CCN(C6CCCC6)CC5)c(O)c4c3C2=O)NC(=O)/C(C)=C\C=C\[C@H](C)[C@H](O)[C@@H](C)[C@@H](O)[C@@H](C)[C@H](OC(C)=O)[C@@H]1C [rifapentine]
Conditions | AUC25, [2] | Einf, [4] | FIC50, [3] | FIC90, [1] | GRinf, [5]
in vitro model: acidic pH 5.7, time point: constant (~7 days, model-specific) | 0.101 | 0.925 | 0.285 | – | -0.447
in vitro model: acidic pH 5.7, time point: terminal (~4-5 doublings, model-specific) | 0.0525 | 0.991 | 0.359 | 0.243 | -0.276
in vitro model: intracellular J774, time point: constant = terminal | – | 0.991 | – | -0.454 | -0.347

Conditions | AUC25, [2] | Einf, [4] | FIC50, [3] | FIC90, [1] | GRinf, [5]
in vitro model: butyrate, time point: constant (~7 days, model-specific) | 0.0925 | 0.929 | 0.307 | 0.357 | -0.0285
in vitro model: butyrate, time point: terminal (~4-5 doublings, model-specific) | 0.0679 | 0.963 | 0.223 | 0.114 | -0.0133
in vitro model: cholesterol 0.05 mM, time point: constant (~7 days, model-specific) | 0.114 | 0.732 | 0.253 | – | -0.354
in vitro model: cholesterol 0.05 mM, time point: terminal (~4-5 doublings, model-specific) | 0.0965 | 0.93 | 0.285 | 1.63 | -0.257
in vitro model: cholesterol-high 0.2 mM, time point: constant (~7 days, model-specific) | 0.0774 | 0.911 | 0.634 | – | -0.247
in vitro model: cholesterol-high 0.2 mM, time point: terminal (~4-5 doublings, model-specific) | 0.0546 | 0.979 | 0.806 | 0.721 | -0.463
in vitro model: dormancy (butyrate + nitrate, low O2), time point: constant (~7 days, model-specific) | 0.0571 | 0.904 | 0.527 | 0.277 | 0.192
in vitro model: dormancy (butyrate + nitrate, low O2), time point: terminal (~4-5 doublings, model-specific) | 0.0438 | 0.983 | 0.383 | 0.448 | -0.148
in vitro model: standard 7H9 glycerol, time point: constant = terminal | 0.0697 | 0.928 | -0.158 | 0.519 | 0.0428
in vitro model: valerate, time point: constant (~7 days, model-specific) | 0.127 | 0.892 | 0.377 | – | -0.0483
in vitro model: valerate, time point: terminal (~4-5 doublings, model-specific) | 0.0738 | 0.954 | 0.21 | 0.484 | -0.107

O=[N+]([O-])c1cn2c(n1)OC[C@@H](OCc1ccc(OC(F)(F)F)cc1)C2 [pretomanid] + CO[C@H]1/C=C/O[C@@]2(C)Oc3c(C)c(O)c4c(O)c(c(/C=N/N5CCN(C)CC5)c(O)c4c3C2=O)NC(=O)/C(C)=C\C=C\[C@H](C)[C@H](O)[C@@H](C)[C@@H](O)[C@@H](C)[C@H](OC(C)=O)[C@@H]1C [rifampicin]
Conditions | AUC25, [2] | Einf, [4] | FIC50, [3] | FIC90, [1] | GRinf, [5]
in vitro model: acidic pH 5.7, time point: constant (~7 days, model-specific) | 0.106 | 0.944 | 0.259 | – | -0.224
in vitro model: acidic pH 5.7, time point: terminal (~4-5 doublings, model-specific) | 0.0463 | 0.985 | 0.545 | -0.025 | -0.239
in vitro model: intracellular J774, time point: constant = terminal | – | 0.966 | – | -0.863 | -0.281

Conditions | AUC25, [2] | Einf, [4] | FIC50, [3] | FIC90, [1] | GRinf, [5]
in vitro model: butyrate, time point: constant (~7 days, model-specific) | 0.0943 | 0.915 | 0.189 | -0.398 | 0.00239
in vitro model: butyrate, time point: terminal (~4-5 doublings, model-specific) | 0.0817 | 0.966 | -0.0797 | -0.223 | -0.0223
in vitro model: cholesterol 0.05 mM, time point: constant (~7 days, model-specific) | 0.108 | 0.691 | 0.468 | – | -0.0815
in vitro model: cholesterol 0.05 mM, time point: terminal (~4-5 doublings, model-specific) | 0.0829 | 0.905 | 0.242 | -0.715 | -0.0976
in vitro model: cholesterol-high 0.2 mM, time point: constant (~7 days, model-specific) | 0.0743 | 0.902 | 0.509 | 0.733 | -0.211
in vitro model: cholesterol-high 0.2 mM, time point: terminal (~4-5 doublings, model-specific) | 0.0653 | 1 | 0.521 | 0.306 | -0.595
in vitro model: dormancy (butyrate + nitrate, low O2), time point: constant (~7 days, model-specific) | 0.0843 | 0.942 | 0.23 | -0.00861 | 0.0579
in vitro model: dormancy (butyrate + nitrate, low O2), time point: terminal (~4-5 doublings, model-specific) | 0.0526 | 0.986 | 0.0748 | 0.236 | -0.16
in vitro model: standard 7H9 glycerol, time point: constant = terminal | 0.0517 | 0.912 | -0.316 | -1.42 | 0.0474
in vitro model: valerate, time point: constant (~7 days, model-specific) | 0.104 | 0.877 | 0.152 | – | 0.0588
in vitro model: valerate, time point: terminal (~4-5 doublings, model-specific) | 0.0482 | 0.943 | 0.504 | -0.0514 | 0.0666

O=[N+]([O-])c1cn2c(n1)OC[C@@H](OCc1ccc(OC(F)(F)F)cc1)C2 [pretomanid] + NC(=O)c1cnccn1 [pyrazinamide]
Conditions | AUC25, [2] | Einf, [4] | FIC50, [3] | FIC90, [1] | GRinf, [5]
in vitro model: acidic pH 5.7, time point: constant (~7 days, model-specific) | 0.088 | 0.831 | -0.419 | -0.689 | -0.435
in vitro model: acidic pH 5.7, time point: terminal (~4-5 doublings, model-specific) | 0.0893 | 0.968 | -0.536 | -1.56 | -0.433
in vitro model: intracellular J774, time point: constant = terminal | – | 1 | – | -0.0198 | -0.358

Conditions | AUC25, [2] | Einf, [4] | FIC50, [3] | FIC90, [1] | GRinf, [5]
in vitro model: butyrate, time point: constant (~7 days, model-specific) | 0.115 | 0.869 | -0.24 | 1.15 | 0.144
in vitro model: butyrate, time point: terminal (~4-5 doublings, model-specific) | 0.109 | 0.936 | -0.0126 | 1.79 | 0.0694
in vitro model: cholesterol 0.05 mM, time point: constant (~7 days, model-specific) | 0.137 | 0.752 | – | – | -0.38
in vitro model: cholesterol 0.05 mM, time point: terminal (~4-5 doublings, model-specific) | 0.109 | 0.922 | 0.0466 | – | -0.194
in vitro model: cholesterol-high 0.2 mM, time point: constant (~7 days, model-specific) | 0.0725 | 0.886 | -0.0986 | – | -0.169
in vitro model: cholesterol-high 0.2 mM, time point: terminal (~4-5 doublings, model-specific) | 0.0665 | 0.998 | 0.341 | -0.19 | -0.445
in vitro model: dormancy (butyrate + nitrate, low O2), time point: constant (~7 days, model-specific) | 0.0996 | 0.936 | -0.574 | 0.149 | 0.076
in vitro model: dormancy (butyrate + nitrate, low O2), time point: terminal (~4-5 doublings, model-specific) | 0.0823 | 0.995 | -0.829 | 0.679 | -0.921
in vitro model: standard 7H9 glycerol, time point: constant = terminal | 0.067 | 0.915 | -0.256 | – | 0.0921
in vitro model: valerate, time point: constant (~7 days, model-specific) | 0.093 | 0.833 | 0.0923 | – | 0.163
in vitro model: valerate, time point: terminal (~4-5 doublings, model-specific) | 0.065 | 0.923 | -0.176 | -0.316 | 0.118
